Assay results: patent US12661415B2, “Isoindolinone compounds and imaging agents for imaging Huntingtin protein” (CHDI Foundation, Inc., priority 2021, dated 2026)

Assays:
[1] = target: T1, MBP-HTT(1-89)Q46-His(6×) (Exon1-Q46) protein aggregates (Homo sapiens, UniProt P42858, INS38QQQQQQQQQQQQQQQQQQQQQQQQQ); assay: Exon1-Q46 radioligand binding assay (RBA); details: aggregated Exon1-Q46 1 μM; 0.3 nM ligand [3H3-methyl]-5-((5-methoxypyridin-2-yl)methoxy)-2-(pyrazin-2-yl)benzo[d]oxazole; 60 minutes at 37° C.; read-out: Potency Range (IC50)
T1 construct: MBP-HTT(1-89)Q46-His(6×); His(6×) (C); made in house
Protocol: Exon1-Q46 Radioligand Binding Assay
For radioligand binding assays (RBA) MBP-HTT(1-89)Q46-His(6×) (“Exon1-Q46”) protein was generated based on a previous publication (Scherzinger et al. Cell, Vol. 90, 549-558, Aug. 8, 1997). For experiments 30 μM MBP-Exon1-Q46 was incubated with 150 μg/mL thrombin in assay buffer (150 mM NaCl, 50 mM Tris pH 8.0) and 2 mM CaCl2 for 16 hours at 37° C. Aggregated Exon1-Q46 was pelleted by centrifugation for 5 minutes at 13,000 rpm in a bench top centrifuge and re-dissolved in the same volume of assay buffer. Test compounds were prepared by titration in DMSO at 11 concentrations from 63 μM to 2 nM. For the RBA, Exon1-Q46 protein aggregates and test compounds were pre-incubated in assay buffer for 20 minutes at room temperature, in 100 μL/well in a 96-well plate (pp, round bottom). Then, ligand was added in 50 μL/well and incubated for 60 minutes at 37° C. Final assay concentrations were 1 μM to 30 pM test compound, 1 μM Exon1-Q46 protein (equivalent monomer concentration) and 0.3 nM ligand [^3H3-methyl]-5-((5-methoxypyridin-2-yl)methoxy)-2-(pyrazin-2-yl)benzo[d]oxazole. Samples were transferred onto GF/B filter plates and washed 2× with 200 μL PBS using a Filtermate Harvester. After drying filter plates for 1 hour at 55° C., the back of the plates were sealed with foil and 30 μL/well scintillation fluid (Packard MicroScint 40) added, incubated for 15 minutes in the dark and counted in a MicroBeta reader. For analysis, replicate data from independent assay plates were normalized towards 0% and 100% inhibition using control wells of vehicle (0% inhibition) and 1 μM unlabelled [^3H3-methyl]-5-((5-methoxypyridin-2-yl)methoxy)-2-(pyrazin-2-yl)benzo[d]oxazole (100% inhibition). IC50 values were determined with a sigmoidal inhibition model with four variables (top, bottom, slope, IC50) in a global fit using the normalized replicate data.
The results for various example compounds were as provided in the table below (+++<100 nM; ++100−500 nM; +>500 nM; ND: not determined): […]

[2] = Unbound brain fraction (fu,brain) in mouse brain by equilibrium dialysis; assay type: in vitro ADME; details: 20% mouse brain homogenate, 5 μM, equilibrium dialysis 6 h at 37° C., average of triplicate
Protocol: Compounds were tested for unbounded brain fraction (or free fraction in brain, fu,brain). It is an accepted standard in the CNS PET imaging field that compounds with low unbound fraction in brain (<5%) likely have high non-specific binding background that is undesirable for the detection of target binding. As a result, fu,brain is an important property in the design of PET ligands for brain imaging [see Zhang et al., Design and selection parameters to accelerate the discovery of novel central nervous system positron emission tomography (PET) ligands and their application in the development of a novel phosphodiesterase 2A PET ligand. J Med Chem 2013, 56 (11), 4568-79; Liu et al., Imaging Mutant Huntingtin Aggregates: Development of a Potential PET Ligand. J Med Chem 2020, 63 (15), 8608-8633].
Determining fu,brain in Mouse Brain by Equilibrium Dialysis. Dialysis membranes (12-14 kDa) (HTDialysis, Connecticut) were soaked in phosphate buffer (10 mM potassium phosphate and 0.8% sodium chloride buffer, pH 7.4 at 37° C.) for a minimum of 1 h, at this time ethanol was added (final concentration of 20% v/v) and membranes continued to soak for 30 min Mouse brain tissue was diluted in phosphate buffer in a […] (w/v) and homogenised using a Precellys 24 (Stretton Scientific, UK) to achieve a final concentration of 20% brain homogenate.
Test compounds prepared as DMSO stocks at 0.5 mM are diluted into brain homogenate to achieve 5 μM final substrate concentration (1% DMSO) and a t=0 sample was prepared by sampling 50 μL of into 400 μL of quench solution (Acetonitrile containing 0.1% formic acid and sulfisoxazole/tolbutamide/imipramine/labetalol 200 nM). Samples were matrix matched with the addition of 50 μL of assay buffer. The HTDialysis Teflon blocks (HTDialysis, Connecticut) were assembled with pre-soaked membrane between each receiver and donor well and clamped in the stainless steel pressure plate (HTDialysis, Connecticut). The lower compartment (acceptor side) was dosed with 120 μL of buffer and the upper compartment (donor side) was dosed with 120 μL of compound in homogenate. All test compounds and controls were completed in triplicate. The HT dialysis plate was sealed and incubated for 6 h at 37° C. shaking at 250 rpm.
Following the incubation, 50 μL of sample was removed from all donor and acceptor wells and transferred into a quench plate containing 400 μL of quench solution. All samples were matrix matched with 50 μL of the alternate blank matrix. Analytical samples were diluted 1:1 with water using the Janus Robot and analysed by LC-MS/MS.
Peak areas of donor and acceptor compartments were compared to determine percent unbound (% fu) and the average of triplicate measurements was reported. Reference T0 sample was used to calculate sample recovery (%). Control compounds were compared with historic and literature values to ensure assay functionality.

T1 sequence (P42858 with tags, fused parts or gaps with the stated changes): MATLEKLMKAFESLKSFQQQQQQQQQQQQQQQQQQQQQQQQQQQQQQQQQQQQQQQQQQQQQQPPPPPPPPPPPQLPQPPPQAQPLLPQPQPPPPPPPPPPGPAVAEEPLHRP

| SMILES | IC50 [1] | Mean Free Brain Fraction (%) [2] |
| --- | --- | --- |
| COc1ccc(COc2ccc3c(c2)CN(c2ccc(=O)n(C)n2)C3=O)nc1 [Compound 1-6, 5-[(5-Methoxypyridin-2-yl)methoxy]-2-(1-methyl-6-oxo-1,6-dihydropyridazin-3-yl)-2,3-dihydro-1H-isoindol-1-one] | < 100 nM | 9.8% |
| COc1ccc(COc2cc3c(cc2F)C(=O)N(c2cn(C)c(=O)cn2)C3)nc1 [Compound 14-3, 6-Fluoro-5-((5-methoxypyridin-2-yl)methoxy)-2-(4-methyl-5-oxo-4,5-dihydropyrazin-2-yl)isoindolin-1-one] | < 100 nM | 17.1% |
| CC(F)Oc1ccc(COc2ccc3c(c2)CN(c2ccc(=O)n(C)n2)C3=O)nc1 (stereo not shown) [Compound 1-10, 5-{[5-(1-Fluoroethoxy)pyridin-2-yl]methoxy}-2-(1-methyl-6-oxo-1,6-dihydropyridazin-3-yl)-2,3-dihydro-1H-isoindol-1-one] | < 100 nM | 3.8% |
| COc1ccc(COc2cc(F)c3c(c2)C(=O)N(c2ccc(=O)n(C)n2)C3)nc1 [Compound 12-3, 4-Fluoro-6-[(5-methoxypyridin-2-yl)methoxy]-2-(1-methyl-6-oxo-1,6-dihydropyridazin-3-yl)-2,3-dihydro-1H-isoindol-1-one] | < 100 nM | 5.4% |
| Cn1nc(N2Cc3cc(OCc4ccc(OCF)cn4)ccc3C2=O)ccc1=O [Compound 2-2, 5-{[5-(Fluoromethoxy)pyridin-2-yl]methoxy}-2-(1-methyl-6-oxo-1,6-dihydropyridazin-3-yl)-2,3-dihydro-1H-isoindol-1-one] | < 100 nM | 12.7% |
